Data from ChEMBL document CHEMBL3877299, “Imidazopyridine-fused [1,3]-diazepinones part 2: Structure-activity relationships and antiproliferative activity against melanoma cells” (Eur J Med Chem, 2017).

Test system: not listed separately
Test: Cytotoxicity against human MDA-MB-435 cells assessed as growth inhibition after 48 hrs by MTT assay
Format: functional
Details: MDA-MB-435, 48 h
For `C[C@H]1NC(c2ccc(Br)cc2)=Nc2nc3ccccn3c2C1=O`, the GI50 was over 100 µM. For `Cc1ccccc1C1=Nc2nc3ccccn3c2C(=O)[C@H](C)N1`, the GI50 was over 10 µM. With `COc1ccc(C2=Nc3nc4ccccn4c3C(=O)[C@H](C)N2)cc1OC` the GI50 was over 10 µM. `C[C@@H]1NC(c2ccc(C#N)cc2)=Nc2nc3ccccn3c2C1=O` gave a GI50 of over 10 µM. In the case of `C[C@@H]1NC(c2ccc(-c3ccccc3)cc2)=Nc2nc3ccccn3c2C1=O`, the GI50 is reported as 40 µM. For `C[C@H]1C(=O)c2c(nc3ccccn23)N=C(c2ccc(Br)cc2)N1C`, the GI50 was over 10 µM. In the case of `C[C@@H]1NC(c2ccccc2Br)=Nc2nc3ccccn3c2C1=O`, the GI50 is reported as 8.35 µM. Work on `O=C1CNC(c2ccc(Br)cc2)=Nc2nc3ccccn3c21` yielded a GI50 of over 10 µM. `C[C@@H]1NC(c2ccc(C(F)(F)F)cc2)=Nc2nc3ccccn3c2C1=O` showed a GI50 of over 10 µM. With `CC[C@@H]1NC(c2ccc(Br)cc2)=Nc2nc3ccccn3c2C1=O` the GI50 was 1 µM. `NCCCC[C@@H]1NC(c2ccc(Br)cc2)=Nc2nc3ccccn3c2C1=O` showed a GI50 of over 10 µM. Work on `O=C(NCCCC[C@@H]1NC(c2ccc(Br)cc2)=Nc2nc3ccccn3c2C1=O)OCc1ccccc1` yielded a GI50 of over 10 µM. `CC(=O)Nc1ccc(C2=Nc3nc4ccccn4c3C(=O)[C@H](C)N2)cc1` gave a GI50 of 10 to 100 µM. `C[C@@H]1NC(c2cccc(Cl)c2)=Nc2nc3ccccn3c2C1=O` showed a GI50 of 10 µM. Work on `C[C@@H]1NC(c2ccc(Br)cc2)=Nc2nc3ccccn3c2[C@H]1O` yielded a GI50 of over 10 µM. For `CNC(=O)c1ccc(C2=Nc3nc4ccccn4c3C(=O)[C@H](C)N2)cc1`, the GI50 was over 10 µM. `C[C@@H]1NC(c2ccc(F)cc2)=Nc2nc3ccccn3c2C1=O` gave a GI50 of over 10 µM. With `C[C@@H]1NC(c2cccc(Br)c2)=Nc2nc3ccccn3c2C1=O` the GI50 was over 10 µM. `C[C@@H]1NC(c2ccc(Cl)c(C(F)(F)F)c2)=Nc2nc3ccccn3c2C1=O` gave a GI50 of over 10 µM. For `C[C@@H]1NC(c2ccc(I)cc2)=Nc2nc3ccccn3c2C1=O`, the GI50 was 1.35 µM. For `CCOC(=O)c1ccc(C2=Nc3nc4ccccn4c3C(=O)[C@H](C)N2)cc1`, the GI50 was over 10 µM. With `CC(C)[C@@H]1NC(c2ccc(Br)cc2)=Nc2nc3ccccn3c2C1=O` the GI50 was 50 µM. Molecule `C[C@@H]1NC(c2cccc3ccccc23)=Nc2nc3ccccn3c2C1=O` has a GI50 of 1.4 µM. With `C[C@@H]1NC(c2ccccc2Cl)=Nc2nc3ccccn3c2C1=O` the GI50 was 6.5 µM. `O=C1c2c(nc3ccccn23)N=C(c2ccc(Br)cc2)N[C@H]1CO` gave a GI50 of 0.95 to 1 µM.

Molecular target: Mitogen-activated protein kinase kinase kinase kinase 4 (Homo sapiens, UniProt O95819)
Sequence (O95819 whole entry): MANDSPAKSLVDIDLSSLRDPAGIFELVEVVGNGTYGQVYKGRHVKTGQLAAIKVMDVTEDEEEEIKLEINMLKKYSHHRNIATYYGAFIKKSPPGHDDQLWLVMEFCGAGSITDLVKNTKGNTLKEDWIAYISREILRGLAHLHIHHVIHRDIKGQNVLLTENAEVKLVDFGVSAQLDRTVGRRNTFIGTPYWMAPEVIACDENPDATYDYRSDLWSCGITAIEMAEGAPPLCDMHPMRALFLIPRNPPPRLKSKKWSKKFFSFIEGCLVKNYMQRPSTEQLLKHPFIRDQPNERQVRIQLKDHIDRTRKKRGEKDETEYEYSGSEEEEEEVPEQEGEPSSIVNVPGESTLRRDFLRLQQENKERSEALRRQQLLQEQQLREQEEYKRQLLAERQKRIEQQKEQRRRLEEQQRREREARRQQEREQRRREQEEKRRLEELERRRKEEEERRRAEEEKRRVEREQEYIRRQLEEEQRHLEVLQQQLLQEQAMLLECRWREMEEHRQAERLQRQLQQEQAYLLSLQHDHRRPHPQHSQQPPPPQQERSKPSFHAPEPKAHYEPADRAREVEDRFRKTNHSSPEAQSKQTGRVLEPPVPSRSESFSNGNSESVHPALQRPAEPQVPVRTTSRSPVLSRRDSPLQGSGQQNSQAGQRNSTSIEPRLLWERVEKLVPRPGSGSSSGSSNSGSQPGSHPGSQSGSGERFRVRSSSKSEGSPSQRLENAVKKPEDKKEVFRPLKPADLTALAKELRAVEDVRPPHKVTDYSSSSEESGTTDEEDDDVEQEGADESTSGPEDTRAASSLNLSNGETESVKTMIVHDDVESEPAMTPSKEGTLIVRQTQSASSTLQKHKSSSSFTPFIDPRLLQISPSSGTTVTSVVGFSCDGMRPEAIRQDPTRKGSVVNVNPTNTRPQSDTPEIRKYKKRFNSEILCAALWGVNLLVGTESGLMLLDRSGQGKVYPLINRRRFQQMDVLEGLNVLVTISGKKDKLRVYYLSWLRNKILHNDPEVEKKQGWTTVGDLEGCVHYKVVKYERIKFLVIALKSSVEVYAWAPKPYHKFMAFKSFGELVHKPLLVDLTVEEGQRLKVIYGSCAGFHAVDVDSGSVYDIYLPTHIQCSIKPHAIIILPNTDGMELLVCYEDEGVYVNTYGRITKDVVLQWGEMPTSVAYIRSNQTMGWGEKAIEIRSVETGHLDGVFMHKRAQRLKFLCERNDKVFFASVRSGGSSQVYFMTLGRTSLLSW
Test: Inhibition of recombinant human HGK using Ulight-FLGFTYVAP as substrate after 90 mins by LANCE assay
Details: not given
In the case of `C[C@H]1NC(c2ccc(Br)cc2)=Nc2nc3ccccn3c2C1=O`, the IC50 is reported as over 100 µM. `C[C@@H]1NC(c2ccc(-c3ccccc3)cc2)=Nc2nc3ccccn3c2C1=O` gave an IC50 of over 100 µM. `CC(=O)Nc1ccc(C2=Nc3nc4ccccn4c3C(=O)[C@H](C)N2)cc1` gave an IC50 of over 100 µM. Work on `CC(C)[C@@H]1NC(c2ccc(Br)cc2)=Nc2nc3ccccn3c2C1=O` yielded an IC50 of 44 µM.
